Measurements from patent US8614327B2 (Vertex Pharmaceuticals Incorporated, priority 2004, dated 2013).

Molecular target: T1, ΔF508-CFTR (Homo sapiens, UniProt P13569, DEL508-508)
T1 construct: expressed in transfected cells
Test: Membrane potential optical (FRET/VIPR) assay, identification of potentiator compounds
Assay type: cell-based
Conditions: Table 3, assay not given; for % Activity: relative efficacy
Procedure, shortened: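 Double-addition potentiator screen: compound delivered in gluconate-substituted Cl^--free medium, membrane potential followed via CC2-DMPE/DiSBAC2(3) FRET on VIPR. Cells were ΔF508-CFTR-expressing NIH3T3 mouse fibroblasts, held 2 h at 37° C. then 24 h at 27° C. before assay.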

T1 sequence (P13569 with tags, fused parts or gaps DEL508-508): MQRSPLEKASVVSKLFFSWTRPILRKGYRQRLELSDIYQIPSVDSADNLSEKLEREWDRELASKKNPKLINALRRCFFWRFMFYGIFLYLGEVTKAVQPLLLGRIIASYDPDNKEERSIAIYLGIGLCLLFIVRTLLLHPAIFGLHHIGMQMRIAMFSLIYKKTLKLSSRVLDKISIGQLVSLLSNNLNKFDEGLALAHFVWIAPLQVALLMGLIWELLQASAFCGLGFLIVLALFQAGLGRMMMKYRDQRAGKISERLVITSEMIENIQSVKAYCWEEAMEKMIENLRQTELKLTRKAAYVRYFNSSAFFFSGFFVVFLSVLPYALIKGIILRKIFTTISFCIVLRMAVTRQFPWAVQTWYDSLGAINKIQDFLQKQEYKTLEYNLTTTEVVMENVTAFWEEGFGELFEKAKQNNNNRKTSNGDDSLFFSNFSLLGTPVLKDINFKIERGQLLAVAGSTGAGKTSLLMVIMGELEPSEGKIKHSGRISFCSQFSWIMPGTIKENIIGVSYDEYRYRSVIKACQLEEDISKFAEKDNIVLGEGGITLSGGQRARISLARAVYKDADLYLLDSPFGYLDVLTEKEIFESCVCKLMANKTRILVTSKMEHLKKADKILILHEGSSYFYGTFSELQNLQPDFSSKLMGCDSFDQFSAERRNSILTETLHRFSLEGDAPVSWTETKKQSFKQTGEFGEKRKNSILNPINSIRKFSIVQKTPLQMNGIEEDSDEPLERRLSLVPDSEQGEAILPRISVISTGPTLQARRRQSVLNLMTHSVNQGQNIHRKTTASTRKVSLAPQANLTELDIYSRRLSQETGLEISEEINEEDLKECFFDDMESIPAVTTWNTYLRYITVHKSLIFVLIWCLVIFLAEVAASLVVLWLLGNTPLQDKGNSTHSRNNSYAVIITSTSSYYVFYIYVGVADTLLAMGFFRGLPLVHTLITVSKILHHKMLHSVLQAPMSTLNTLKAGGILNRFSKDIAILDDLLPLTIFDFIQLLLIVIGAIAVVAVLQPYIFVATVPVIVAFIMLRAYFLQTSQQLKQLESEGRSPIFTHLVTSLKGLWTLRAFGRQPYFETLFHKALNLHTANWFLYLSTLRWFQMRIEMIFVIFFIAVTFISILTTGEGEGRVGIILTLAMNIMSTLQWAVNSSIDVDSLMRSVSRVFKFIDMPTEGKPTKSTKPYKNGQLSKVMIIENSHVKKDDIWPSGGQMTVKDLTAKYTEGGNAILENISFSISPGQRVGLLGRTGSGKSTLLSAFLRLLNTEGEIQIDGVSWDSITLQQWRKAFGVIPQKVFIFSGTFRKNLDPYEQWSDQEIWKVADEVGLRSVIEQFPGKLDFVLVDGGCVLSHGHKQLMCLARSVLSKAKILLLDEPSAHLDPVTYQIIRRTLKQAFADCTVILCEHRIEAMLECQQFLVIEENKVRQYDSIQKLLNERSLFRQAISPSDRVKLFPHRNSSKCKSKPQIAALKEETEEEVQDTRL

Compound	EC50	% Activity
Cc1cc(C2C3CC4CC(C3)CC2C4)c(O)cc1NC(=O)c1c[nH]c2ccccc2c1=O (centres unmarked) [Compound 208, N-[4-(2-adamantyl)-5-hydroxy-2-methyl-phenyl]-4-oxo-1H-quinoline-3-carboxamide]	< 10 µM	++ (between 25% to 100%)
CC(C)(C)OC(=O)N1CCc2ccc(NC(=O)c3c[nH]c4ccccc4c3=O)cc2C1 [Compound 107, 7-[(4-oxo-1H-quinolin-3-yl)carbonylamino]-1,2,3,4-tetrahydroisoquinoline-2-carboxylic acid tert-butyl ester]	10 to 25 µM	++ (between 25% to 100%)
N#Cc1ccc(-c2ccccc2NC(=O)c2c[nH]c3ccccc3c2=O)s1 [Compound 93, N-[2-(5-cyano-2-thienyl)phenyl]-4-oxo-1H-quinoline-3-carboxamide]	< 10 µM	++ (between 25% to 100%)
O=C(Nc1cc(NS(=O)(=O)CCN2CCCCC2)cc(C(F)(F)F)c1)c1c[nH]c2ccccc2c1=O [Compound 318, 4-Oxo-N-[3-[2-(1-piperidyl)ethylsulfonylamino]-5-(trifluoromethyl)phenyl]-1H-quinoline-3-carboxamide]	10 to 25 µM	++ (between 25% to 100%)
O=C(Nc1ccccc1N1CCN(C(=O)c2ccccc2)CC1)c1c[nH]c2ccccc2c1=O [Compound 321, N-[2-(4-benzoylpiperazin-1-yl)phenyl]-4-oxo-1H-quinoline-3-carboxamide]	< 10 µM	++ (between 25% to 100%)
O=C(Nc1ccccc1-c1cccc(F)c1F)c1c[nH]c2ccccc2c1=O [Compound 285, N-[2-(2,3-difluorophenyl)phenyl]-4-oxo-1H-quinoline-3-carboxamide]	< 10 µM	++ (between 25% to 100%)
CCOc1ccc(OCC)c(NC(=O)c2c[nH]c3ccccc3c2=O)c1 [Compound 264, N-(2,5-diethoxyphenyl)-4-oxo-1H-quinoline-3-carboxamide]	10 to 25 µM	++ (between 25% to 100%)
COC(=O)c1cccc(-c2ccccc2NC(=O)c2c[nH]c3ccccc3c2=O)c1 [Compound 68, 3-[2-[(4-oxo-1H-quinolin-3-yl)carbonylamino]phenyl]benzoic acid methyl ester]		++ (between 25% to 100%)
O=C(Nc1cc(NS(=O)(=O)CCN2CCOCC2)cc(C(F)(F)F)c1)c1c[nH]c2ccccc2c1=O [Compound 272, N-[3-(2-morpholinoethylsulfonylamino)-5-(trifluoromethyl)phenyl]-4-oxo-1H-quinoline-3-carboxamide]	10 to 25 µM	++ (between 25% to 100%)
O=C(Nc1cccc(O)c1)c1c[nH]c2ccccc2c1=O [Compound 144, N-(3-hydroxyphenyl)-4-oxo-1H-quinoline-3-carboxamide]	< 10 µM	++ (between 25% to 100%)
CCOc1ccccc1-c1cc2cc[nH]c2cc1NC(=O)c1c[nH]c2ccccc2c1=O [Compound 327, N-[5-(2-ethoxyphenyl)-1H-indol-6-yl]-4-oxo-1H-quinoline-3-carboxamide]	< 10 µM	++ (between 25% to 100%)
CCOc1cc(NC(=O)c2c[nH]c3ccccc3c2=O)c(OCC)cc1NC(=O)c1ccccc1 [Compound 7, N-(4-benzoylamino-2,5-diethoxy-phenyl)-4-oxo-1H-quinoline-3-carboxamide]	25 to 60 µM	+ (<25%)
CC(C)(C)c1ccc(NC(=O)c2c[nH]c3ccccc3c2=O)cc1CO [Compound 6, N-[3-(hydroxymethyl)-4-tert-butyl-phenyl]-4-oxo-1H-quinoline-3-carboxamide]	< 10 µM	+++ (>100%)
CCC(CC)(c1cc(F)c(NC(=O)c2cnc3ccccc3c2O)cc1O)C(C)(C)C [Compound 153, N-[4-(1,1-diethyl-2,2-dimethyl-propyl)-2-fluoro-5-hydroxy-phenyl]-4-hydroxy-quinoline-3-carboxamide]	< 10 µM	++ (between 25% to 100%)
O=C(Nc1cccc(Oc2ccccc2)c1)c1c[nH]c2ccccc2c1=O [Compound 87, 4-oxo-N-(3-phenoxyphenyl)-1H-quinoline-3-carboxamide]	< 10 µM	++ (between 25% to 100%)
O=C(Nc1ccc(S(=O)(=O)N2CCOCC2)cc1)c1c[nH]c2ccccc2c1=O [Compound 276, N-(4-morpholinosulfonylphenyl)-4-oxo-1H-quinoline-3-carboxamide]	10 to 25 µM	++ (between 25% to 100%)
CCOC(=O)Nc1cc(NC(=O)c2c[nH]c3ccccc3c2=O)ccc1C [Compound 141, [2-methyl-5-[(4-oxo-1H-quinolin-3-yl)carbonylamino]phenyl]aminoformic acid ethyl ester]	10 to 25 µM	++ (between 25% to 100%)

Further lines, results first:

EC50	% Activity	Compound
< 10 µM	++ (between 25% to 100%)	COc1cccc(NC(=O)c2c[nH]c3ccccc3c2=O)c1 [Compound 408, N-(3-methoxyphenyl)-4-oxo-1H-quinoline-3-carboxamide]
10 to 25 µM	++ (between 25% to 100%)	Cc1ccccc1-c1nc2cc(NC(=O)c3c[nH]c4ccccc4c3=O)ccc2o1 [Compound 329, N-[2-(o-tolyl)benzooxazol-5-yl]-4-oxo-1H-quinoline-3-carboxamide]
< 10 µM	++ (between 25% to 100%)	CC(C)(C)c1cc(F)c(NC(=O)c2c[nH]c3cccc(O)c3c2=O)cc1O [Compound 407, N-(2-fluoro-5-hydroxy-4-tert-butyl-phenyl)-5-hydroxy-4-oxo-1H-quinoline-3-carboxamide]
25 to 60 µM	+ (<25%)	CC(=O)c1cccc(NC(=O)c2c[nH]c3ccccc3c2=O)c1 [Compound 328, N-(3-acetylphenyl)-4-oxo-1H-quinoline-3-carboxamide]
	+ (<25%)	CC(C)(C)c1cc(C(C)(C)C)c(NC(=O)c2c[nH]c3ccc(C(F)(F)F)cc3c2=O)cc1O [Compound 515, N-(5-hydroxy-2,4-ditert-butyl-phenyl)-4-oxo-6-(trifluoromethyl)-1H-quinoline-3-carboxamide]
< 10 µM	++ (between 25% to 100%)	CC(C)(C)c1ccc(NC(=O)c2c[nH]c3ccc(F)cc3c2=O)cc1O [Compound 490, 6-fluoro-N-(3-hydroxy-4-tert-butyl-phenyl)-4-oxo-1H-quinoline-3-carboxamide]
< 10 µM	++ (between 25% to 100%)	CCOCCc1c[nH]c2cc(NC(=O)c3c[nH]c4ccccc4c3=O)ccc12 [Compound 423, N-[3-(2-ethoxyethyl)-1H-indol-6-yl]-4-oxo-1H-quinoline-3-carboxamide]
< 10 µM	++ (between 25% to 100%)	COc1ccc2[nH]cc(C(=O)Nc3cc(O)c(C(C)(C)C)cc3C(C)(C)C)c(=O)c2c1 [Compound 496, N-(5-hydroxy-2,4-ditert-butyl-phenyl)-6-methoxy-4-oxo-1H-quinoline-3-carboxamide]
< 10 µM	++ (between 25% to 100%)	O=C(Nc1cc(N2CCCCC2)cc(C(F)(F)F)c1)c1c[nH]c2ccccc2c1=O [Compound 488, 4-oxo-N-[3-(1-piperidyl)-5-(trifluoromethyl)phenyl]-1H-quinoline-3-carboxamide]
< 10 µM	++ (between 25% to 100%)	COC(=O)c1c(NC(=O)c2c[nH]c3ccccc3c2=O)csc1C(C)(C)C [Compound 690, methyl 4-[(4-oxo-1H-quinolin-3-yl)carbonylamino]-2-tert-butyl-thiophene-3-carboxylate]
< 10 µM	+++ (>100%)	CNc1cccc2[nH]cc(C(=O)Nc3cc(O)c(C(C)(C)C)cc3C(C)(C)C)c(=O)c12 [Compound 542, N-(5-hydroxy-2,4-ditert-butyl-phenyl)-5-methylamino-4-oxo-1H-quinoline-3-carboxamide]
< 10 µM	++ (between 25% to 100%)	CC(C)(C)c1cc(C(C)(C)C)c(NC(=O)c2c[nH]c3ccc(O)cc3c2=O)cc1O [Compound 702, 6-hydroxy-N-(5-hydroxy-2,4-ditert-butyl-phenyl)-4-oxo-1H-quinoline-3-carboxamide]
< 10 µM	++ (between 25% to 100%)	C#Cc1ccc(NC(=O)c2c[nH]c3ccccc3c2=O)cc1 [Compound 332, N-(4-ethynylphenyl)-4-oxo-1H-quinoline-3-carboxamide]
< 10 µM	++ (between 25% to 100%)	O=C(Nc1ccc(OC(F)F)cc1)c1c[nH]c2ccccc2c1=O [Compound 360, N-[4-(difluoromethoxy)phenyl]-4-oxo-1H-quinoline-3-carboxamide]
10 to 25 µM	++ (between 25% to 100%)	CCOC(=O)NC1CCCc2ccc(NC(=O)c3c[nH]c4ccccc4c3=O)cc21 (centres unmarked) [Compound 482, [7-[(4-Oxo-1H-quinolin-3-yl)carbonylamino]tetralin-1-yl]aminoformic acid ethyl ester]
< 10 µM	++ (between 25% to 100%)	O=C(Nc1ccc(N2CCC[C@H]2C(=O)O)cc1C(F)(F)F)c1c[nH]c2ccccc2c1=O [Compound 567, (S)-1-[4-[(4-oxo-1H-quinolin-3-yl)carbonylamino]-3-(trifluoromethyl)phenyl]pyrrolidine-2-carboxylic acid]
< 10 µM	+ (<25%)	CC(C)(C)c1cc(C(C)(C)C)c(NC(=O)c2c[nH]c3ccc(C#N)cc3c2=O)cc1O [Compound 525, 6-cyano-N-(5-hydroxy-2,4-ditert-butyl-phenyl)-4-oxo-1H-quinoline-3-carboxamide]
< 10 µM	++ (between 25% to 100%)	CC(C)(C)c1cc(C(C)(C)C)c(NC(=O)c2c[nH]c3ccc(Br)cc3c2=O)cc1O [Compound 553, 6-bromo-N-(5-hydroxy-2,4-ditert-butyl-phenyl)-4-oxo-1H-quinoline-3-carboxamide]
